We go through four compounds from patent US11000033B2, “Ketone or oxime compound, and herbicide” (NISSAN CHEMICAL CORPORATION, priority 2014, dated 2021).

What all share (type): in vivo
Data set [1] concerns Apera spica-venti. Briefly: Test Example 5: herbicidal effect by foliage application, plastic box (symbol L). Conditions: 3 weeks after application. The gist of the method:
(§1)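 Emulsion formulation, diluted with water to the intended rate, was applied uniformly to leaves by small sprayer. Recipients were 14-day greenhouse-grown seedlings (25° C. to 30° C.). Assessment followed at 3 weeks.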

Data set [2] relates to Alopecurus myosuroides. Kind of data set: Test Example 4: herbicidal effect by soil treatment (symbol J). The gist of the method:
(§2)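 Seeds were sown in sterilized diluvial soil, covered with about 1.5 cm of soil, and the soil surface was sprayed with a water-diluted emulsion of the compound at a predetermined rate. Plants grew in a greenhouse at 25° C. to 30° C.; effects were scored visually 3 weeks after application.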

Data set [3] has as its system Alopecurus myosuroides. Briefly: Test Example 5: herbicidal effect by foliage application, plastic box (symbol J). Conditions: 3 weeks after application. The gist of the method:
as §1

The test system of data set [4] is Scirpus juncoides. Briefly: Test Example 2: herbicidal activity, application during weed generation in submerged conditions (symbol B). The following applies: Table 23, grade 0-5 by criteria of Test Example 1. The gist of the method: (§3)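 Alluvial soil in pots was flooded to a 4 cm water depth and sown with a mix of the three weed species, then grown in a greenhouse at 25° C. to 30° C. At the one- to two-leaf stage, an emulsifiable formulation diluted in water to a set dose was applied to the water surface. Effects were scored visually 3 weeks later.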

Data set [5] has as its system Veronica persica. Kind of data set: Test Example 4: herbicidal effect by soil treatment (symbol R). The gist of the method:
as §2

Data set [6] has as its system Echinochloa oryzacola Vasing. Briefly: Test Example 2: herbicidal activity, application during weed generation in submerged conditions (symbol A). The following applies: Table 23, grade 0-5 by criteria of Test Example 1. An outline of the steps:
as §3

The subject of data set [7] is corn. Briefly: Test Example 5: effect on crop by foliage application, plastic box (symbol c). The following applies: 3 weeks after application. The gist of the method: (§4)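 Seeds were sown in spots in sterilized diluvial soil held in a plastic box 21 cm × 13 cm × 7 cm deep, covered with about 1.5 cm of soil, and grown in a greenhouse at 25° C. to 30° C.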
Data set [8] deals with Setaria viridis. Kind of data set: Test Example 4: herbicidal effect by soil treatment (symbol G). An outline of the steps: as §2
The subject of data set [9] is Echinochloa crus-galli var. crus-galli. Briefly: Test Example 3: herbicidal effect by foliage application, Wagner pot (symbol H). The gist of the method:
(§5)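 Weeds and rice were sown in alluvial soil under 0.1–0.5 cm of standing water and grown for 14 days in a 25–30 °C greenhouse. An emulsion of the compound, diluted in water to a set dose, was sprayed evenly onto the foliage. Effect was scored against fixed criteria 3 weeks after treatment.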

In data set [10] the test system is Scirpus juncoides. Briefly: Test Example 1: herbicidal activity, application before weed generation in submerged conditions (symbol B). The gist of the method:
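Application before weed emergence: an aqueous dilution of the emulsion formulation was poured onto the surface of 4 cm-deep floodwater on the day of sowing. Effect was judged after 3 weeks (greenhouse, 25–30 °C).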

For data set [11], the system named is Cyperus difformis. Briefly: Test Example 3: herbicidal effect by foliage application, Wagner pot (symbol E). An outline of the steps:
as §5

In data set [12] the test system is Avena fatua. Briefly: Test Example 4: herbicidal effect by soil treatment (symbol I). An outline of the steps: as §2
Data set [13] deals with Abutilon theophrasti. Kind of data set: Test Example 4: herbicidal effect by soil treatment (symbol M). An outline of the steps:
as §2

Data set [14] has as its system Apera spica-venti. Briefly: Test Example 4: herbicidal effect by soil treatment (symbol L). The gist of the method:
as §2

Data set [15] concerns rapeseed. Kind of data set: Test Example 5: effect on crop by foliage application, plastic box (symbol g). The following applies: 3 weeks after application. The gist of the method: as §4
Setting [16] is: application herbicide amount 320 g/ha.
Setting [17] is: application herbicide amount 320 g/ha, Table 24.
The mark [18] stands for this setting: application herbicide amount 102 g/ha.

As for `CC(CC1CC(O)=C(c2c(C)cc(C)cc2C)C1=O)=NOCC#N` (stereo not drawn) [1-102], in data set [1] (320 g/ha), the “L: Apera spica-venti, herbicidal effect (criteria 0-5)” value is reported as 5 (Herbicidal ratio of 90% or more (almost completely withered)). Also, in data set [2] (320 g/ha), the “J: Alopecurus myosuroides, herbicidal effect grade” value is 5 (Herbicidal ratio of 90% or more (almost completely withered)). Besides, in data set [3] (320 g/ha), the “J: Alopecurus myosuroides, herbicidal effect (criteria 0-5)” value is 5 (Herbicidal ratio of 90% or more (almost completely withered)). Also, the “Herbicidal effect grade, B: Scirpus juncoides” value (“Herbicidal effect grade, B” below) is 2 (Herbicidal ratio of 20% or higher and lower than 40%) in [4] (setting [16]); 3 (Herbicidal ratio of 40% or higher and lower than 70%) in [10] (setting [16]). For the same compound, in data set [5] (320 g/ha), the “R: Veronica persica, herbicidal effect grade” value was 0 (Herbicidal ratio of 5% or lower (almost no effect)). The “Herbicidal effect grade, A: Echinochloa oryzacola Vasing.” value in data set [6] (setting [16]) is given as 5 (Herbicidal ratio of 90% or more (almost completely withered)). Further, in data set [7] (320 g/ha), the “c: corn, effect on crop (criteria 0-5)” value was 5 (Herbicidal ratio of 90% or more (almost completely withered)). Besides, the “G: Setaria viridis, herbicidal effect grade” value in [8] (320 g/ha) was 5 (Herbicidal ratio of 90% or more (almost completely withered)). For the same compound, in data set [9] (setting [16]), the “herbicidal effect on H (Echinochloa crus-galli var. crus-galli), grade 0-5” value (“herbicidal effect on H” below) is on record as 5 (Herbicidal ratio of 90% or more (almost completely withered)). The “herbicidal effect on E, grade 0-5” value in data set [11] (setting [16]) is on record as 5 (Herbicidal ratio of 90% or more (almost completely withered)). In addition, in [12] (320 g/ha), the “I: Avena fatua, herbicidal effect grade” value is recorded as 0 (Herbicidal ratio of 5% or lower (almost no effect)). The “M: Abutilon theophrasti, herbicidal effect grade” value in data set [13] (320 g/ha) is reported as 0 (Herbicidal ratio of 5% or lower (almost no effect)). For the same compound, in data set [14] (320 g/ha), the “L: Apera spica-venti, herbicidal effect grade” value is reported as 5 (Herbicidal ratio of 90% or more (almost completely withered)). Further, the “g: rapeseed, effect on crop (criteria 0-5)” value in [15] (320 g/ha) is 2 (Herbicidal ratio of 20% or higher and lower than 40%).

In the case of `CCCCCCCCS(=O)(=O)OC1=C(c2c(C)cc(C)cc2C)C(=O)C(CC(C)=NOC)C1` (stereo not drawn) [1-107], in data set [1] (320 g/ha), the “L: Apera spica-venti, herbicidal effect (criteria 0-5)” value is given as 5 (Herbicidal ratio of 90% or more (almost completely withered)). In data set [2] (320 g/ha), the “J: Alopecurus myosuroides, herbicidal effect grade” value is listed as 5 (Herbicidal ratio of 90% or more (almost completely withered)). The “J: Alopecurus myosuroides, herbicidal effect (criteria 0-5)” value in data set [3] (320 g/ha) is given as 5 (Herbicidal ratio of 90% or more (almost completely withered)). Further, the “Herbicidal effect grade, B” value in [4] (setting [16]) was 2 (Herbicidal ratio of 20% or higher and lower than 40%); in [10] (setting [16]), 4 (Herbicidal ratio of 70% or higher and lower than 90%). Further, in data set [5] (320 g/ha), the “R: Veronica persica, herbicidal effect grade” value is recorded as 0 (Herbicidal ratio of 5% or lower (almost no effect)). In data set [6] (setting [16]), the “Herbicidal effect grade, A: Echinochloa oryzacola Vasing.” value is reported as 5 (Herbicidal ratio of 90% or more (almost completely withered)). Besides, in data set [7] (320 g/ha), the “c: corn, effect on crop (criteria 0-5)” value is 2 (Herbicidal ratio of 20% or higher and lower than 40%). The “G: Setaria viridis, herbicidal effect grade” value in [8] (320 g/ha) was 3 (Herbicidal ratio of 40% or higher and lower than 70%). In data set [9] (setting [16]), the “herbicidal effect on H” value is 5 (Herbicidal ratio of 90% or more (almost completely withered)). The “herbicidal effect on E, grade 0-5” value in [11] (setting [16]) is reported as 5 (Herbicidal ratio of 90% or more (almost completely withered)). In addition, in data set [12] (320 g/ha), the “I: Avena fatua, herbicidal effect grade” value is recorded as 0 (Herbicidal ratio of 5% or lower (almost no effect)). The “M: Abutilon theophrasti, herbicidal effect grade” value in data set [13] (320 g/ha) is 0 (Herbicidal ratio of 5% or lower (almost no effect)). In addition, in data set [14] (320 g/ha), the “L: Apera spica-venti, herbicidal effect grade” value is listed as 5 (Herbicidal ratio of 90% or more (almost completely withered)). Further, the “g: rapeseed, effect on crop (criteria 0-5)” value in [15] (320 g/ha) was 4 (Herbicidal ratio of 70% or higher and lower than 90%).

In the case of `CC#Cc1cc(C)c(C2=C(OC(=O)COc3ccccc3)CC(CC(C)=NOCC(F)(F)F)C2=O)c(C)c1` (stereo not drawn) [9-013], the “L: Apera spica-venti, herbicidal effect grade” value in data set [1] (320 g/ha) is reported as 5 (Herbicidal ratio of 90% or more (almost completely withered)). Moreover, in data set [2] (setting [16]), the “Herbicidal effect grade, J: Alopecurus myosuroides” value is on record as 5 (Herbicidal ratio of 90% or more (almost completely withered)). Moreover, the “J: Alopecurus myosuroides, herbicidal effect grade” value in data set [3] (320 g/ha) is on record as 5 (Herbicidal ratio of 90% or more (almost completely withered)). Further, the “Herbicidal effect grade, B” value in data set [4] (setting [16]) was 5 (Herbicidal ratio of 90% or more (almost completely withered)). In addition, the “Herbicidal effect grade, R: Veronica persica” value in [5] (setting [16]) was 4 (Herbicidal ratio of 70% or higher and lower than 90%). Further, in data set [6] (setting [16]), the “Herbicidal effect grade, A: Echinochloa oryzacola Vasing.” value is 5 (Herbicidal ratio of 90% or more (almost completely withered)). Also, in data set [7] (320 g/ha), the “c: corn, effect on crop grade” value is on record as 5 (Herbicidal ratio of 90% or more (almost completely withered)). Also, the “Herbicidal effect grade, G: Setaria viridis” value in [8] (setting [16]) was 5 (Herbicidal ratio of 90% or more (almost completely withered)). Besides, in data set [9] (setting [17]), the “H (Echinochloa crus-galli var. crus-galli) herbicidal effect grade” value is 5 (Herbicidal ratio of 90% or more (almost completely withered)). The “B (Scirpus juncoides) herbicidal effect grade” value in data set [10] (setting [16]) is listed as 5 (Herbicidal ratio of 90% or more (almost completely withered)). Also, in [11] (setting [17]), the “E herbicidal effect grade” value is recorded as 5 (Herbicidal ratio of 90% or more (almost completely withered)). For the same compound, the “Herbicidal effect grade, I: Avena fatua” value in data set [12] (setting [16]) is 5 (Herbicidal ratio of 90% or more (almost completely withered)). For the same compound, the “Herbicidal effect grade, M: Abutilon theophrasti” value in data set [13] (setting [16]) was 3 (Herbicidal ratio of 40% or higher and lower than 70%). Besides, the “Herbicidal effect grade, L: Apera spica-venti” value in [14] (setting [16]) is given as 5 (Herbicidal ratio of 90% or more (almost completely withered)). The “g: rapeseed, effect on crop grade” value in data set [15] (320 g/ha) is 4 (Herbicidal ratio of 70% or higher and lower than 90%).

As to `CC(=O)CC1CC(O)=C(c2c(C)cc(C)cc2C)C1=O` (stereo not drawn) [2-001, 3-hydroxy-2-mesityl-5-(2-oxopropyl)cyclopent-2-enone], the “L: Apera spica-venti, herbicidal effect grade” value was 4 (Herbicidal ratio of 70% or higher and lower than 90%) in [1] (102 g/ha); 2 (Herbicidal ratio of 20% or higher and lower than 40%) in data set [14] (102 g/ha). Further, the “J: Alopecurus myosuroides, herbicidal effect grade” value in data set [2] (102 g/ha) is 4 (Herbicidal ratio of 70% or higher and lower than 90%); in data set [3] (102 g/ha), 5 (Herbicidal ratio of 90% or more (almost completely withered)). The “Herbicidal effect grade, B” value in data set [4] (setting [18]) and in data set [10] (setting [18]) was 0 (Herbicidal ratio of 5% or lower (almost no effect)) in each case. Moreover, the “R: Veronica persica, herbicidal effect grade” value in [5] (102 g/ha) is recorded as 0 (Herbicidal ratio of 5% or lower (almost no effect)). Besides, the “Herbicidal effect grade, A: Echinochloa oryzacola Vasing.” value in data set [6] (setting [18]) is 0 (Herbicidal ratio of 5% or lower (almost no effect)). The “c: corn, effect on crop grade” value in data set [7] (102 g/ha) is 3 (Herbicidal ratio of 40% or higher and lower than 70%). Further, in data set [8] (102 g/ha), the “G: Setaria viridis, herbicidal effect grade” value is 4 (Herbicidal ratio of 70% or higher and lower than 90%). In addition, the “herbicidal effect on H” value in data set [9] (setting [18]) was 5 (Herbicidal ratio of 90% or more (almost completely withered)). In [11] (setting [18]), the “herbicidal effect on E, grade 0-5” value was 5 (Herbicidal ratio of 90% or more (almost completely withered)). The “I: Avena fatua, herbicidal effect grade” value in data set [12] (102 g/ha) is recorded as 0 (Herbicidal ratio of 5% or lower (almost no effect)). In data set [13] (102 g/ha), the “M: Abutilon theophrasti, herbicidal effect grade” value is 3 (Herbicidal ratio of 40% or higher and lower than 70%). Further, the “g: rapeseed, effect on crop grade” value in [15] (102 g/ha) was 4 (Herbicidal ratio of 70% or higher and lower than 90%).
